Measurements: ChEMBL document CHEMBL4602696, “LMP2 Inhibitors as a Potential Treatment for Alzheimer's Disease” (J Med Chem, 2020)
Active and inactive are the calls of the source. The rule behind the calls is not given here.

Assays:
[1] = Inhibition of LMP7/Beta 5 subunit chymotrypsin-like activity in human RPM18226 cell lysates using Suc-LLVY-AMC as substrate after 1 hr by fluorescence based microplate reader analysis; assay type: cell-free; details: rpmi-8226
[2] = target: T1, Proteasome subunit beta type-9 (Homo sapiens, UniProt P28065); experiment: Inhibition of LMP2 in human 20S immunoproteasome using Ac-PAL-AMC as substrate after 1 hr by fluorescence based microplate reader analysis
T1 sequence (P28065 whole entry): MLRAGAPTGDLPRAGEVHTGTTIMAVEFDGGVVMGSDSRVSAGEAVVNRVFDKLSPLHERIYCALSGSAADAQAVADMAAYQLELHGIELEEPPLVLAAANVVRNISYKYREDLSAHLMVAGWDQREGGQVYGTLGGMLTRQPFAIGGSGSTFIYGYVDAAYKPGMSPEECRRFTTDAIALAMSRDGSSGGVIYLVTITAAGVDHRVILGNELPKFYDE

[3] = target: T2, Proteasome Macropain subunit MB1 (Homo sapiens, UniProt P28074); experiment: Inhibition of Beta5 in human 20S […] usingAc-WLA-AMC as substrate after 1 hr by fluorescence based microplate reader analysis
T2 sequence (P28074 whole entry): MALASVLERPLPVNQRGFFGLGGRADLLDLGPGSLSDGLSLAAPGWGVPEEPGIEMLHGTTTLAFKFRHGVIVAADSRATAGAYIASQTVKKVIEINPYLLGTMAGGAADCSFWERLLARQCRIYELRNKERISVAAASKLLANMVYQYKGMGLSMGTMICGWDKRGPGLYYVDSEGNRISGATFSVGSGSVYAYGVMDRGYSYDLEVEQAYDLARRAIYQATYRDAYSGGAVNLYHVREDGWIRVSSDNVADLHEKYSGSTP

[4] = target: T3, Proteasome subunit beta type-9 (Homo sapiens) (UniProt P28065); experiment: Inhibition of LMP2 subunit in human DLD1 cells over expressing ABCB1 at 1 uM using Ac-PAL-AMC as substrate incubated for 4 hrs; assay type: cell-based; details: DLD-1
T3 sequence (whole entry): T1 sequence (P28065 whole entry)

[5] = target: T3, Proteasome subunit beta type-9 (Homo sapiens); experiment: Inhibition of immunoproteasome LMP2 subunit in human DLD1 cells over expressing ABCB1 at 3 uM using Ac-PAL-AMC as substrate incubated for 4 hrs in presence of reversin-121; assay type: cell-based; details: DLD-1
[6] = target: T4, Proteasome subunit beta type-8 (Homo sapiens, UniProt P28062); experiment: Inhibition of LMP7 in human 20S immunoproteasome using Ac-ANW-AMC as substrate after 1 hr by fluorescence based microplate reader analysis
T4 sequence (P28062 whole entry): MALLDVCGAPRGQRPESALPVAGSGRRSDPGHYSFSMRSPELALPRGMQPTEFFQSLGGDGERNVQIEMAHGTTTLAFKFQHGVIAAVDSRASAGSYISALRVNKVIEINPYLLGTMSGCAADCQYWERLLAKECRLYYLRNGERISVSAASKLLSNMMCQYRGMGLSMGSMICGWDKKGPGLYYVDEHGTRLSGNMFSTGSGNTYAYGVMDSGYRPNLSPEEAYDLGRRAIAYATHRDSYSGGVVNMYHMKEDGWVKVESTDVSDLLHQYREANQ

SMILES | IC50 [1] | IC50 [2] | IC50 [3] | inhibition [4] | inhibition [5] | IC50 [6]
Cc1ncc(C(=O)NCC(=O)N2CCC[C@H]2C(=O)N[C@@H](CCc2ccccc2)C(=O)N[C@@H](CC(C)C)C(=O)[C@@]2(C)CO2)s1 | > 10000 nM | 103 nM |  |  |  | 
CC(=O)NCC(=O)N1CCC[C@H]1C(=O)N[C@@H](Cc1ccc(NC(=O)c2ccccc2)cc1)C(=O)N[C@@H](CC(C)C)C(=O)[C@@]1(C)CO1 | 5080 nM | 72 nM |  |  |  | 
CC(=O)NCC(=O)N1CCC[C@H]1C(=O)N[C@@H](CO)C(=O)N[C@@H](CC(C)C)C(=O)[C@@]1(C)CO1 | > 10000 nM | 120 nM |  |  |  | 
CCc1ccc(C[C@H](NC(=O)[C@@H]2CCCN2C(=O)CNC(C)=O)C(=O)N[C@@H](CC(C)C)C(=O)[C@@]2(C)CO2)cc1 | > 10000 nM | 134 nM |  |  |  | 
CC(=O)NCC(=O)N1CCC[C@@]1(C)C(=O)N[C@@H](Cc1ccccc1)C(=O)N[C@@H](CC(C)C)C(=O)[C@@]1(C)CO1 | > 10000 nM | 152 nM |  |  |  | 
CC(=O)NCC(=O)N1CCCC[C@H]1C(=O)N[C@@H](Cc1ccccc1)C(=O)N[C@@H](CC(C)C)C(=O)[C@@]1(C)CO1 | 1310 nM | 123 nM |  |  |  | 
Cc1ncc(C(=O)NCC(=O)N2CCC[C@H]2C(=O)N[C@@H](Cc2ccc3ccccc3c2)C(=O)N[C@@H](CC(C)C)C(=O)[C@@]2(C)CO2)s1 | > 10000 nM | 183 nM |  |  |  | 
CC(C)C[C@H](NC(=O)[C@H](Cc1ccccc1)NC(=O)[C@@H]1CCCN1C(=O)CNC(=O)C(F)(F)F)C(=O)[C@@]1(C)CO1 | > 10000 nM | 131 nM |  |  |  | 
COc1cnc(C(=O)NCC(=O)N2CCC[C@H]2C(=O)N[C@@H](Cc2ccccc2)C(=O)N[C@@H](CC(C)C)C(=O)[C@@]2(C)CO2)cn1 | > 10000 nM | 111 nM |  |  |  | 
CC(=O)NCC(=O)N1CCC[C@H]1C(=O)N[C@@H](Cc1ccncc1)C(=O)N[C@@H](CC(C)C)C(=O)[C@@]1(C)CO1 | 10000 nM | 122 nM |  |  |  | 
CC(C)C[C@H](NC(=O)[C@H](Cc1ccccc1)NC(=O)[C@@H]1CCCN1C(=O)CN1CCOCC1=O)C(=O)[C@@]1(C)CO1 | > 10000 nM | 1040 nM |  |  |  | 
CC(=O)NCC(=O)N1CCC[C@H]1C(=O)N[C@@H](CCc1ccccc1)C(=O)N[C@@H](CC(C)C)C(=O)[C@@]1(C)CO1 | > 10000 nM | 58 nM |  |  |  | 
Cc1ncc(C(=O)NCC(=O)N2CCC[C@H]2C(=O)N[C@@H](Cc2ccccc2)C(=O)N[C@@H](CC(C)C)C(=O)[C@@]2(C)CO2)s1 | > 10000 nM | 106 nM |  |  |  | 
C[C@]1(C(=O)[C@H](Cc2ccccc2)NC(=O)[C@H](CO)NC(=O)c2cccc(=O)[nH]2)CO1 | > 10000 nM | 158 to 162 nM | > 10000 nM | inactive | Active | > 10000 nM
CC(=O)NCC(=O)N1CCC[C@H]1C(=O)N[C@@H](Cc1ccc(NC(=O)c2cnccn2)cc1)C(=O)N[C@@H](CC(C)C)C(=O)[C@@]1(C)CO1 | > 10000 nM | 33.2 nM |  |  |  | 
CC(=O)NCC(=O)N1CC[C@H]1C(=O)N[C@@H](Cc1ccccc1)C(=O)N[C@@H](CC(C)C)C(=O)[C@@]1(C)CO1 | > 10000 nM | 100 nM |  |  |  | 
CC(=O)NCC(=O)N1CCC[C@H]1C(=O)N[C@@H](Cc1ccc2ccccc2c1)C(=O)N[C@@H](CC(C)C)C(=O)[C@@]1(C)CO1 | > 10000 nM | 33.5 nM |  |  |  | 
CC(=O)NCC(=O)N1CC(=O)C[C@H]1C(=O)N[C@@H](Cc1ccccc1)C(=O)N[C@@H](CC(C)C)C(=O)[C@@]1(C)CO1 | > 10000 nM | 622 nM |  |  |  | 
CC(C)C[C@H](NC(=O)[C@H](Cc1ccccc1)NC(=O)[C@@H]1CCCN1C(=O)c1cccc(O)n1)C(=O)[C@@]1(C)CO1 | > 10000 nM | 1010 nM |  |  |  | 
CC(=O)NCC(=O)N1CCC[C@H]1C(=O)N[C@@H](Cc1ccccc1)C(=O)N[C@@H](CC(C)C)C(=O)[C@@]1(C)CO1 | > 10000 nM |  | > 10000 nM | inactive | Active | > 10000 nM

SMILES | IC50 [1] | IC50 [2] | IC50 [3] | inhibition [4] | inhibition [5] | IC50 [6]
CC(C)C[C@H](NC(=O)[C@H](Cc1ccccc1)NC(=O)[C@@H]1CCCN1C(=O)CN1CCOCC1)C(=O)[C@@]1(C)CO1 | > 10000 nM | 1220 nM |  |  |  | 
CC(=O)NCC(=O)N1CCC[C@H]1C(=O)N[C@@H](Cc1ccc(C(C)(C)C)cc1)C(=O)N[C@@H](CC(C)C)C(=O)[C@@]1(C)CO1 | > 10000 nM | 121 nM |  |  |  | 
CC(C)C[C@H](NC(=O)[C@H](Cc1ccccc1)NC(=O)[C@@H]1CCCN1C(=O)CNC(=O)c1cccc(O)n1)C(=O)[C@@]1(C)CO1 | > 10000 nM | 143 nM |  |  |  | 
CC(=O)NCC(=O)N1CCC[C@H]1C(=O)N[C@@H](Cc1ccc(NC(=O)CN2CCOCC2)cc1)C(=O)N[C@@H](CC(C)C)C(=O)[C@@]1(C)CO1 | > 10000 nM | 90.9 nM |  |  |  | 
CC(C)C[C@H](NC(=O)[C@H](Cc1ccccc1)NC(=O)[C@@H]1CCCN1C(=O)CNS(C)(=O)=O)C(=O)[C@@]1(C)CO1 | > 10000 nM | 115 nM |  |  |  | 
Cc1cc(C(=O)NCC(=O)N2CCC[C@H]2C(=O)N[C@@H](CCc2ccccc2)C(=O)N[C@@H](CC(C)C)C(=O)[C@@]2(C)CO2)no1 | 10000 nM | 132 nM |  |  |  | 
CC(=O)NCC(=O)N1CCC[C@H]1C(=O)N[C@@H](Cc1ccc(-c2ccccc2)cc1)C(=O)N[C@@H](CC(C)C)C(=O)[C@@]1(C)CO1 | 5300 nM | 21.7 nM |  |  |  | 
CC(=O)NCC(=O)N1CCC[C@H]1C(=O)N[C@@H](Cc1ccc(F)cc1)C(=O)N[C@@H](CC(C)C)C(=O)[C@@]1(C)CO1 | > 10000 nM | 82 nM |  |  |  | 
CC(C)C[C@H](NC(=O)[C@H](CCc1ccccc1)NC(=O)[C@@H]1CCCN1C(=O)CNC(=O)c1cnccn1)C(=O)[C@@]1(C)CO1 | > 10000 nM | 131 nM |  | Active |  | 
Cc1ncc(C(=O)NCC(=O)N2CCC[C@H]2C(=O)N[C@@H](Cc2ccc(-c3ccccc3)cc2)C(=O)N[C@@H](CC(C)C)C(=O)[C@@]2(C)CO2)s1 | 10000 nM | 115 nM |  | Active |  | 
CC(=O)NCC(=O)N1CCC[C@H]1C(=O)N[C@@H](Cc1ccccc1)C(=O)N[C@@H](Cc1ccccc1)C(=O)[C@@]1(C)CO1 | > 10000 nM | 342 nM |  |  |  | 
CC(=O)NCC(=O)N1CCC[C@H]1C(=O)N[C@@H](Cc1ccccc1)C(=O)N[C@@H](CC(C)C)C(=O)[C@]1(C)CO1 |  |  | > 10000 nM |  |  | > 10000 nM
CC(=O)NCC(=O)N1CCC[C@H]1C(=O)N[C@@H](Cc1ccccc1)C(=O)N[C@@H](CC1CCCCC1)C(=O)[C@@]1(C)CO1 | > 10000 nM | 201 nM |  |  |  | 
CC(C)C[C@H](NC(=O)[C@H](Cc1ccc2ccccc2c1)NC(=O)[C@@H]1CCCN1C(=O)CNC(=O)c1cnccn1)C(=O)[C@@]1(C)CO1 | 5760 nM | 90.1 nM |  |  |  | 
CC(C)C[C@H](NC(=O)[C@H](Cc1ccc(-c2ccccc2)cc1)NC(=O)[C@@H]1CCCN1C(=O)CNC(=O)c1cnccn1)C(=O)[C@@]1(C)CO1 | 10000 nM | 62.8 nM |  |  |  | 
CC(=O)NCC(=O)N1CCC[C@H]1C(=O)N[C@@H](Cc1cccc2ccccc12)C(=O)N[C@@H](CC(C)C)C(=O)[C@@]1(C)CO1 | > 10000 nM | 29.7 nM |  |  |  | 
CCCC[C@H](NC(=O)[C@@H]1CCCN1C(=O)CNC(C)=O)C(=O)N[C@@H](CC(C)C)C(=O)[C@@]1(C)CO1 | > 10000 nM | 120 nM |  |  |  | 
CC(=O)NCC(=O)N1CC(F)(F)C[C@H]1C(=O)N[C@@H](Cc1ccccc1)C(=O)N[C@@H](CC(C)C)C(=O)[C@@]1(C)CO1 | > 10000 nM | 71.8 nM |  |  |  | 
CC(=O)NCC(=O)N1C[C@H](F)C[C@H]1C(=O)N[C@@H](Cc1ccccc1)C(=O)N[C@@H](CC(C)C)C(=O)[C@@]1(C)CO1 | > 10000 nM | 151 nM |  |  |  | 
